The supplement of paper PMC10307832

How the values were obtained:
Test in all cases: relative viability (nuclei count vs DMSO), 5 days (fraction); higher = more cells survive
Metformin + Decitabine = compound: CN(C)C(=N)NC(=N)N [Metformin] + Nc1ncn([C@H]2C[C@H](O)[C@@H](CO)O2)c(=O)n1 [Decitabine] (partner 2 µM)
Method in brief: (§1)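 Nuclei were stained with Hoechst during a one-step fixation (final 0.05% Triton X-100, 1% formaldehyde, 1 ug/ml Hoechst) carried out 5 days after dosing, then counted on 4× images. The cells, lung cancer lines in 1536-well plates, had been dosed by pin tool the day after seeding with one drug alone or a fixed anchor-drug dose plus five library-drug doses (not always all listed) in √10 steps. Relative viability is the nuclei count in treated wells divided by that in vehicle wells, and each value is the median of duplicate plates.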

Apatinib + Luminespib = compound: N#CC1(c2ccc(NC(=O)c3cccnc3NCc3ccncc3)cc2)CCCC1 [Apatinib] + CCNC(=O)c1noc(-c2cc(C(C)C)c(O)cc2O)c1-c1ccc(CN2CCOCC2)cc1 [Luminespib] (partner 0.01 µM)
Method in brief: as §1

Metformin + Bortezomib = compound: CN(C)C(=N)NC(=N)N [Metformin] + CC(C)C[C@H](NC(=O)[C@H](Cc1ccccc1)NC(=O)c1cnccn1)B(O)O [Bortezomib] (partner 0.002 µM)
Method in brief: as §1

Apatinib + Dasatinib = compound: N#CC1(c2ccc(NC(=O)c3cccnc3NCc3ccncc3)cc2)CCCC1 [Apatinib] + Cc1nc(Nc2ncc(C(=O)Nc3c(C)cccc3Cl)s2)cc(N2CCN(CCO)CC2)n1 [Dasatinib] (partner 0.075 µM)
Method in brief: as §1

Row | Cell Line | relative viability (Metformin + Decitabine; first compound 31.62 µM) | relative viability (Metformin + Decitabine; first compound 100 µM) | relative viability (Metformin + Decitabine; first compound 316.23 µM) | relative viability (Metformin + Decitabine; first compound 1000 µM) | relative viability (Apatinib + Luminespib; first compound 0.08 µM) | relative viability (Apatinib + Luminespib; first compound 0.253 µM) | relative viability (Apatinib + Luminespib; first compound 0.8 µM) | relative viability (Apatinib + Luminespib; first compound 2.53 µM) | relative viability (Apatinib + Luminespib; first compound 8 µM) | relative viability (Metformin + Bortezomib; first compound 31.62 µM) | relative viability (Metformin + Bortezomib; first compound 100 µM) | relative viability (Metformin + Bortezomib; first compound 316.23 µM) | relative viability (Metformin + Bortezomib; first compound 1000 µM) | relative viability (Apatinib + Dasatinib; first compound 0.08 µM) | relative viability (Apatinib + Dasatinib; first compound 0.253 µM) | relative viability (Apatinib + Dasatinib; first compound 0.8 µM) | relative viability (Apatinib + Dasatinib; first compound 2.53 µM) | relative viability (Apatinib + Dasatinib; first compound 8 µM) | relative viability (Metformin + Decitabine; first compound 10 µM) | relative viability (Metformin + Bortezomib; first compound 10 µM)
1 | 201T | 0.824 | 0.805 | 0.799 | 0.776 | 0.983 | 1.02 | 1.12 | 1 | 0.855 | 1.15 | 1.1 | 1.06 | 1.12 | 0.617 | 0.511 | 0.525 | 0.502 | 0.423 | – | –
2 | NCI-H838 | 0.465 | 0.482 | 0.396 | 0.459 | 0.332 | 0.286 | 0.388 | 0.282 | 0.249 | 1.14 | 0.926 | 0.957 | 1.23 | 0.353 | 0.303 | 0.272 | 0.328 | 0.268 | 0.478 | 1.02
3 | HOP-62 | 0.144 | 0.18 | 0.208 | 0.186 | 1.01 | 0.838 | 0.77 | 0.714 | 0.692 | 0.745 | 0.209 | 0.723 | 0.816 | 0.732 | 0.699 | 0.689 | 0.571 | 0.589 | 0.193 | 0.602
4 | LC-2-ad | 0.736 | 0.826 | 0.583 | 0.642 | 1.08 | 1.16 | 1.01 | 1.01 | 0.917 | 1.01 | 0.766 | 0.756 | 0.926 | 0.718 | 0.774 | 0.511 | 0.391 | 0.4 | – | –
5 | LCLC-97TM1 | 0.203 | 0.202 | 0.21 | 0.29 | 0.761 | 0.833 | 0.863 | 0.605 | 0.297 | 0.87 | 0.789 | 0.713 | 0.351 | 0.824 | 0.763 | 0.767 | 0.711 | 0.504 | – | 0.635
